Laboratory results from patent publication US12479794B2, “Acetophenone oxime compound and application thereof” (Medshine Discovery Inc., priority 2020, dated 2025).

What was measured:
S1P3 = target: T1, S1P3 (Homo sapiens, UniProt Q99500); test: In vitro agonistic activity on S1P3, PathHunter cell line; type: cell-based; settings: PathHunter cells
T1 construct: expressed in transfected cells
Description: Assay Example 5: In Vitro Evaluation of the Agonistic Activity of the Compound of the Present Disclosure on S1P2, S1P3 and S1P4
Object of the assay: To detect the agonistic activity of the compound on S1P2, S1P3, and S1P4
• 1. PathHunter cell line was expanded from freezer according to standard procedures. • 2. Cells were seeded into a white 384-well microplate in a total volume of 20 μL and incubated at 37° C. for an appropriate time prior to testing. II. Agonist Assay • 1. For the agonist assay, cells were incubated with a sample to induce a response. • 2. Stock solution was stored in a buffer at a concentration of 5 times the concentration to be tested. • 3. 5 μl of the stock solution sample at a concentration of 5 times the concentration to be tested was added to the cells and incubated at 37° C. or room temperature for 90-180 min with a vehicle concentration of 1%. III. Signal Detection • 1. […] Chemiluminescent Signal detection was performed using a PerkinElmer Envision™ instrument, and the microplate was read after signal generation. […] The activity of the compound was analyzed using the CBIS data analysis suite (ChemInnovation, CA). • 2. For the agonist mode assay, the percent activity was calculated using the following formula: % Activity=100%×(Mean RLU of the Assay Sample−Mean RLU of the Blank Control)/(Mean MAX Control Ligand−Mean RLU of the Blank Control).

[1] = Metabolite identification after incubation in human hepatocytes; type: in vitro ADME; settings: 10 μM, 37° C., 2 hours
Description: (§1) Assay Example 4: Analysis and Identification of Metabolites of the Compound in Human Liver Microsome and Hepatocyte Incubation System
(§2) By using high-resolution mass spectrometry, the metabolite produced by the incubation of compound 32B in human liver microsomes and human hepatocytes was found, and identified for its structure; the percentage content of compound 32B and its metabolite was calculated by using LC-UV; and the possible biotransformation pathway of compound 32B in human liver microsomes and human hepatocytes in vitro was studied.
Compound 32B (10 μM) was incubated in mouse, rat, canine, monkey, and human hepatocyte systems at 37° C. for 120 min. 7-ethoxycoumarin (7-EC, 30 μM) was used as a positive control to evaluate the enzymatic metabolic activity in the hepatocyte incubation system. The incubated sample was analyzed by LC-UV-MS. The structure of each metabolite was resolved and identified based on its primary and secondary mass spectrometry signals and/or comparison with a standard. The relative percentage of the UV-integrated peak area of each metabolite was given through data collected from the sample by HPLC-UV-MS, and the possible structure of the metabolite and its possible metabolic pathway in various genera of hepatocytes were inferred from the mass spectrometry information of the metabolite.

[2] = Metabolite identification after incubation in human liver microsomes with NADPH; type: in vitro ADME; settings: 10 μM, 37° C., 1 hour
Description: as §1, §2
Compound 32B (10 μM) was incubated in a system containing both of human liver microsomes and NADPH at 37° C. for 60 min. 7-ethoxycoumarin (7-EC, 10 μM) was used as a positive control to evaluate the enzymatic metabolic activity in the liver microsome incubation system. The incubated sample was analyzed by LC-UV-HRMS. The structure of each metabolite was resolved and identified based on its primary and secondary mass spectrometry signals and/or comparison with a standard. The relative percentage of the UV-integrated peak area of each metabolite was given through data collected from the sample by LC-UV-HRMS, and the possible structure of the metabolite and its possible metabolic pathway in various genera of liver microsomes were inferred from the mass spectrometry information of the metabolite.

T1 sequence (Q99500 whole entry): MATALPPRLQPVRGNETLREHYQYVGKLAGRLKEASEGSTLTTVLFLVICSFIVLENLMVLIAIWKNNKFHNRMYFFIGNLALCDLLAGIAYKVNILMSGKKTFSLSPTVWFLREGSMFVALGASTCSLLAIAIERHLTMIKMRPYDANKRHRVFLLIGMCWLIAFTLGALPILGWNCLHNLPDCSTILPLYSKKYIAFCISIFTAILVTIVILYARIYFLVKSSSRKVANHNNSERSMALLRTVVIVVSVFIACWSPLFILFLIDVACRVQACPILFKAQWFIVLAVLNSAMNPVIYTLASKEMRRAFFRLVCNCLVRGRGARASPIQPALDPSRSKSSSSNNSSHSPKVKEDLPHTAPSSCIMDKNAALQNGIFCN

- EC50 (S1P3): > 300 nM
- Metabolites detected [1]: no other metabolite was detected
- Relative abundance of the original drug [1]: 100.00%
- Metabolites detected [2]: no other metabolite was detected
- Relative abundance of the original drug [2]: 100.00%
SMILES: CC(=NOCc1ccc(OC(C)C)c(C(F)(F)F)c1)c1ccc2c(c1)CCC2N1CC(C(=O)O)C1 (single isomer, unassigned) [Compound 32B]
